Test results: PMC9525345, “Hypoalbuminemia affects the spatio-temporal tissue distribution of ochratoxin A in liver and kidneys: consequences for organ toxicity” (Archives of Toxicology, 2022)
Read-outs that look alike come from different tables or passages of the source.

Assays:
[1] = Intravital two-photon imaging of OTA transport in the liver; type: in vivo, mice
Source text: (§1) Intravital imaging of OTA transport in the livers and the kidneys of anesthetized wild-type and albumin knockout mice was done using an inverted two-photon microscope (LSM MP7, Zeiss, Germany). Details of the surgical preparation of the mice and exposure of the liver and the kidneys for imaging were previously described (Ghallab et al. [2021a]; Reif et al. [2017]). Tissue morphology was visualized by intravenous administration of the mitochondrial membrane potential marker tetramethylrhodamine ethyl ester (TMRE) (#T669, ThermoFisher Scientific) approximately 10 min before recording (Table 2). To image its transport kinetics in the liver and kidneys, a bolus of OTA (5 mg/kg) was administered via a tail vein catheter (SAI-infusion, IL, USA) within approximately 20 s after the onset of recording; the first few frames recorded prior to the OTA administration served to detect the basal tissue auto-fluorescence (Table 2). The mice were kept under controlled ambient temperature conditions of 36 °C, with exposure to a maintenance isoflurane inhalation anesthesia during the entire recording session.
(§2) During image processing, rigid body registration was performed using StackReg (Thévenaz et al. [1998]) to compensate for tissue movement in the recorded time series. From these stabilized videos, 2D projections were generated using average and standard deviation operators. The pixel classification and autocontext workflows of the interactive image segmentation software ilastik (version 1.3.3post1) (Berg et al. [2019]) were used for compartment segmentation in the 2D projections of liver and kidney. The compartments considered are sinusoids, hepatocyte cytoplasm and bile canaliculi in the liver, as well as inter-tubular capillaries, renal tubular lumen, and the tubular epithelial cells in the kidney. Mean raw OTA intensities were measured per compartment and frame. In addition, for the kidney, mean OTA intensities per tubule were measured based on the signal in the TMRE positive cell compartment, and tubules were subsequently grouped into two sets using k-means clustering based on their maximum mean OTA intensity over time.
(§3) For the calculation of the elimination half-life, Microsoft excel was used. First, the decadic logarithm of the intensity was plotted against the time. Then, the linear declining portion of the curve was selected manually and used for construction of a trend line. Next, the slope of the trendline was multiplied by 2.303 to convert the decadic to the natural logarithm and enable usage of the following formulas: • kel = -slope (Certara knowledgebase) • T ½ = ln (2) /kel (Certara knowledgebase)

[2] = Intravital two-photon imaging of OTA transport in the kidneys; type: in vivo, mice; settings: 5 mg/kg tail vein bolus
Source text: as §1, §2, §3

[3] = test system: wild-type and albumin knockout mice; assay: Ochratoxin A toxicity experiment: liver (histopathology, ALT, AST); type: in vivo; settings: 24 h; for liver histopathology: 10 mg/kg i.v. single dose
Procedure: (§4) To study the role of albumin in OTA toxicity, 8-week-old female homozygote and heterozygote albumin-deficient mice, and corresponding C57BL/6 J wild-type controls were challenged intravenously with 10 mg/kg OTA (#10470691, Fisher Scientific) dissolved in 0.1 M NaHCO3, pH 7.4, with an application volume of 2 ml/kg. On day 1 after OTA injection, heart blood samples were collected, and plasma was separated according to a standard protocol (Gianmoena et al. [2021]). In addition, tissue specimens were collected from the left liver lobe and kidneys, fixed for 2 days in 4% paraformaldehyde (#P087-5, Roth), and finally embedded in paraffin for histopathology and immunohistochemistry analyses (Schneider et al. [2021b]).
(§5) Plasma concentration of albumin, creatinine, and blood urea nitrogen (BUN), as well as activities of alanine transaminase (ALT), and aspartate transaminase (AST) were analyzed by the Piccolo Xpress Chemistry Analyzer (Hitado, Germany) using the Piccolo general chemistry 13 panel (#AB-114-400-0029, Hitado, Germany).
(§6) Hematoxylin and eosin (H&E) staining was performed in 4 µm-thick paraffin-embedded liver and kidney tissue sections as previously described (Campos et al. [2020]).
(§7) Visualization of albumin protein expression in the liver tissue, and immune cell infiltration in the liver and kidney tissues was done by immunohistochemistry using an autostainer (Discovery Ultra Automated Slide Preparation System, Roche, Germany) (Ghallab et al. [2021b]). For this purpose, 4 µm-thick paraffin-embedded liver or kidney tissue sections were incubated with primary antibodies against albumin (# ab192603, abcam), CD45 (a pan leukocyte marker; #550,539, BD Bioscience), and FSP1 (a marker of inflammatory subpopulation of macrophages (Österreicher et al. [2011]) (#ab197896, Abcam). Dilutions of the primary antibodies as well as the used secondary antibodies are described in Table 2. Following staining, entire slides were scanned (Axio Scan.Z1, Zeiss, Germany) and representative images are shown in the results section.

[4] = test system: wild-type and albumin knockout mice; assay: Ochratoxin A toxicity experiment: kidney (histopathology, creatinine, BUN, CD45); type: in vivo; settings: 24 h
Procedure: as §4, §5, §6, §7

[5] = set-up: method as in EFSA [2020]; settings: ref EFSA [2020]; cited from earlier work
[6] = set-up: method as in Perry et al. [2003]; settings: weak organic acid; ref Perry et al. [2003]; cited from earlier work
HSA = test system: HSA; set-up: method as in Poor et al. [2013]; Sueck et al. [2018]; settings: ref Poor et al. [2013], Sueck et al. [2018]; cited from earlier work
[7] = set-up: method as in O'Brien and Dietrich [2005]; Ringot et al. [2006]; settings: mice, per os; ref O'Brien and Dietrich [2005]; Ringot et al. [2006]; cited from earlier work
[8] = set-up: method as in O'Brien and Dietrich [2005]; Ringot et al. [2006]; settings: human; ref O'Brien and Dietrich [2005]; Ringot et al. [2006]; cited from earlier work
mice [9] = test system: mice; set-up: method as in IARC [1993]; settings: ref IARC [1993], cited from earlier work
[10] = set-up: method as in Anzai et al. [2010]; Ringot et al. [2006]; settings: ref Anzai et al. [2010]; Ringot et al. [2006]; cited from earlier work
mice [11] = test system: mice; set-up: method as in Bendele et al. [1985]; Kanisawa and Suzuki [1978]; settings: mice-fed diets containing 40 ppm, equivalent to 5.6 mg/kg b.w. per day; ref Bendele et al. [1985]; Kanisawa and Suzuki [1978]; cited from earlier work
[12] = homozygous albumin knockout mice
[13] = heterozygous albumin knockout mice

C[C@@H]1Cc2c(Cl)cc(C(=O)N[C@@H](Cc3ccccc3)C(=O)O)c(O)c2C(=O)O1 [OTA, Ochratoxin A]
transport of OTA to hepatocytes and bile canaliculi ([1]; heterozygous albumin knockout mice, 5 mg/kg tail vein bolus): transient increases in hepatocytes and enrichment in bile canaliculi | disappearance of OTA from blood after bolus injection [1, 12]: completely disappeared from the blood of homozygous albumin knockout mice within a minute | transport of OTA to hepatocytes and bile canaliculi ([1]; homozygous albumin knockout mice, 5 mg/kg tail vein bolus): massively increased canalicular secretion with almost no increase in the hepatocytes | half-life ([1]; mouse, sinusoidal blood (liver), intravenous, homozygous albumin knockout mice, 5 mg/kg tail vein bolus, read-out: half-life of OTA signal in sinusoidal blood): ~0.22 min | transport of OTA to hepatocytes and bile canaliculi ([1]; wild-type mice, 5 mg/kg tail vein bolus): No transport of OTA to hepatocytes and bile canaliculi was detectable | OTA signal in tubular lumen and tubular epithelial cells [2, 13]: a longer duration and higher intensity of the OTA signal in the tubular epithelial cells | OTA signal in tubular lumen and tubular epithelial cells [2, 12]: rapid filtration into the renal tubular lumen and enrichment into the tubular epithelial cells | half-life ([2]; mouse, renal blood capillaries (kidney), intravenous, homozygous albumin knockout mice, read-out: half-life of OTA signal in renal blood capillaries): ~0.28 min | OTA signal in tubular lumen and tubular epithelial cells ([2]; wild-type mice): only a weak, transient increase was seen in the lumen and cytoplasm of the tubular epithelial cells | liver histopathology [3, 13]: massive pericentral necrosis and hemorrhage | blood biomarkers of liver injury ALT and AST ([3]; heterozygous albumin-deficient mice compared to wild-type and homozygous, 10 mg/kg i.v.): significantly increased values | liver histopathology [3, 12]: appeared smaller compared to the heterozygous animals | liver histopathology ([3]; wild-type mice): small clusters of dead cells in the pericentral compartment of the liver lobule | blood biomarkers of kidney damage, creatinine and urea nitrogen ([4]; between the three mouse models, 10 mg/kg i.v.): no significant differences | immune cell infiltration in kidney (CD45) ([4]; wild type and albumin knockout mice, 10 mg/kg i.v.): no obvious immune cell infiltration | macroscopical or histopathological alterations in kidney tissue ([4]; wild-type, heterozygous and homozygous knockout mice, 10 mg/kg i.v. single dose): did not cause obvious macroscopical or histopathological alterations in the kidney tissue | Log Pow [5]: 4.37 | pKa, carboxyl group [6]: 4.3 | pKa, phenolic hydroxyl group [6]: 7.2 | Albumin binding K (HSA): ~10^7 | Albumin binding log K (HSA): 7.0 – 7.6 | Half-life in blood t1/2 [7]: 40 h | Half-life in blood t1/2 [8]: 35.5 days | Acute toxicity LD50 (mice [9]; i.v.): 25.7 to 33.8 mg/kg | Acute toxicity LD50 (mice [9]; p.o.): 46 to 58.3 mg/kg | plasma protein-binding capacity [10]: > 99% | tumor induction in chronic toxicity studies (mice [11]): induced liver and kidney tumors
